Test results taken from patent US8841077B2, “Biomarkers for amyotrophic lateral sclerosis and methods using the same” (Massachusetts General Hospital, priority 2006, dated 2014).

Legend:
[1] = Metabolomics demographic study of plasma from 270 healthy volunteers of various ages (Table 11); assay type: in vivo, human; settings: normal adults
[2] = Caffeine and paraxanthine in plasma of ALS patients vs peripheral neuropathy or myopathy patients (Examples 6, 7; Tables 12, 13); assay type: in vivo, human
Experimental: All research participants provided informed consent. A board-certified neurologist reviewed and confirmed diagnosis for all participants. Data on gender, age, weight, and medications was collected. For participants with ALS, date and site of symptom onset, date of diagnosis, and family history of ALS was recorded.

[3] = Caffeine and caffeine metabolites in plasma of ALS patients vs healthy control subjects (Examples 4, 5; Tables 9, 10)
Experimental: Metabolomic analysis of two independent ALS studies was carried out to assess the changes of metabolite levels in plasma from ALS patients relative to healthy control subjects. Thirty-one healthy control volunteers and 31 participants with ALS enrolled in Study 1. Study 2 was comprised of ninety-nine participants with ALS and 94 healthy volunteers. All research participants provided informed consent. A board-certified neurologist reviewed and confirmed diagnosis for all participants. Data on gender, age, weight, and medications was collected. For participants with ALS, date and site of symptom onset, date of diagnosis, and family history of ALS was recorded. Healthy control subjects were defined by the absence of a known neurological disorder.
A measure of caffeine clearance rate is reflected in the ratio of caffeine metabolites to caffeine.

Cn1c(=O)[nH]c2ncn(C)c2c1=O [Paraxanthine, 1-7-dimethylxanthine]
Paraxanthine/Caffeine (P/C) Ratio ([1]; age 25-35): 1.1467
Paraxanthine/Caffeine (P/C) Ratio ([1]; age 36-50): 1.0358
Paraxanthine/Caffeine (P/C) Ratio ([1]; age 51-65): 0.7105
Paraxanthine/Caffeine Ratio ([2]; ALS): 0.7389
Paraxanthine/Caffeine Ratio ([2]; Myopathy): 0.4900
Paraxanthine/Caffeine Ratio ([2]; PN): 0.0294

Cn1c(=O)c2[nH]cnc2n(C)c1=O [Theophylline]
Theophylline/Caffeine (T/C) Ratio ([3]; ALS subjects): 1.3684
Theophylline/Caffeine (T/C) Ratio ([3]; Control subjects): 0.8857
